Laboratory results published in patent publication US7378446B2, “Compound having anti-HCV activity and process for producing the same” (Chugai Seiyaku Kabushiki Kaisha, priority 2003, dated 2008).

What was measured:
[1] = system: Firefly luciferase HCV replicon cells (3-1); test: Replicon assay (firefly luciferase HCV replicon); format: cell-based; conditions: Hepatitis C virus, 72 h; Huh7-derived luciferase HCV replicon cells, 3 days culture with compound, Steady-Glo luminescence
Procedure: (§1) A construct was prepared in which a luciferase gene derived from firefly was introduced as a reporter gene in HCV-RNA to assay the number of copies of HCV-RNA. The luciferase gene was introduced in the form of fusing with neomycin-resistance gene directly below the IRES (Internal Ribosome Entry Site) of the HCV gene in accordance with the method of Krieger, et al. (J. Virol. 75:4614). After synthesizing this RNA in vitro, it was introduced into Huh7 cell by electroporation and isolated as G418-resistant clone. Firefly luciferase HCV replicon cells (3-1) were suspended in Dulbecco's MEM (Gibco cat. no. 10569-010) containing 5% fetal bovine serum (Hyclone cat. no. SH30071.03), inoculated into the wells of a 96-well plate at 5000 cells/well and then cultured overnight at 37° C. and 5% CO2. Approximately 20 hours later, the diluted test compound was added at 10 μl per well followed by culturing for another 3 days. Two series of assay plates were prepared, and the assay was carried out using a white plate for one series and a clear plate for the other series. Following completion of culturing, the white plate was used for the Steady-Glo Luciferase Assay System (Promega cat. no. E2520). Namely, after adding 100 μl of reagent per well, mixing by a pipette 3 to 4 times and then allowing to stand for 5 minutes, luminescence was measured with the 1450 MicroBeta TRILUX (Wallac). Values obtained in the absence of cell addition were used as background values and subtracted from all values to calculate the IC50 (50% inhibitory concentration) of the drug based on a value of 0% inhibition for the value in the absence of addition of test compound.

[2] = in vitro; format: cell-based; conditions: human; replicon cells, 3 days culture with compound, Cell Counting Kit 8, absorbance 450 nm; read-out: Cytotoxicity CC50
Procedure: as §1
The Cell Counting Kit 8 (Dojindo cat. no. CK04) was used to determine the cytotoxicity. Namely, 10 μl of Cell Counting Kit 8 were added to a clear plate and incubated for 30 to 60 minutes at 37° C. Absorbance at a wavelength of 450 nm and a control wavelength of 630 nm was measured with a 96-well plate reader. Values in the absence of cell addition were used as background values and subtracted from all values to calculate the CC50 (50% cell inhibitory concentration) of the drug based on a value of 0% inhibition for the value in the absence of addition of drug.

| Compound | IC50 [1] [nM] | CC50 [2] [nM] |
| --- | --- | --- |
| CCCC(=O)CCCCCC/C=C/[C@H](C(=O)N[C@@H](Cc1ccc(OCCC(C)C)cc1)C(=O)O)[C@@](O)(CC(=O)O)C(=O)O [Compound 46] | 800 | > 5000 |
| CCCCCCCCCC(=O)CCCC/C=C/[C@H](C(=O)N[C@@H](Cc1ccc(Oc2ccccc2)cc1)C(=O)O)[C@@](O)(CC(=O)O)C(=O)O [Compound 101] | 46 | > 1000 |
| CC(C)CCOc1ccc(C[C@H](NC(=O)[C@@H](/C=C/CCCCCCC(=O)CCCCCCF)[C@@](O)(CC(=O)O)C(=O)O)C(=O)O)cc1 [Compound 98] | 21 | > 1000 |
| CCCCCCCC(=O)CCCCCC/C=C/[C@H](C(=O)N[C@@H](Cc1ccc(Oc2ccc(N(C)C)cc2)cc1)C(=O)O)[C@@](O)(CC(=O)O)C(=O)O [Compound 67] | 4 | > 1000 |
| CCCCCCCC(=O)CCCCCC/C=C/[C@H](C(=O)N[C@@H](Cc1ccc(-c2cncnc2)cc1)C(=O)O)[C@@](O)(CC(=O)O)C(=O)O [Compound 76] | 13 | > 1000 |
| CCCCCCCCCC(=O)CCCC/C=C/[C@H](C(=O)N[C@@H](Cc1ccc(OCCC(C)C)cc1)C(=O)O)[C@@](O)(CC(=O)O)C(=O)O [Compound 45] | 5 | > 1000 |
| CCCCCCCC(=O)CCCCCC/C=C/[C@H](C(=O)N[C@@H](Cc1ccc(OCCCN2CCN(C)CC2)cc1)C(=O)O)[C@@](O)(CC(=O)O)C(=O)O [Compound 89] | 29 | > 1000 |
| CCCCCCCC(=O)CCCCCC/C=C/[C@H](C(=O)N[C@@H](Cc1ccc(-c2cccc(C(F)(F)F)c2)cc1)C(=O)O)[C@@](O)(CC(=O)O)C(=O)O [Compound 63] | 10 | > 1000 |
| CCCCCCCC(=O)CCCCCC/C=C/[C@H](C(=O)N[C@@H](Cc1ccc(NS(C)(=O)=O)cc1)C(=O)O)[C@@](O)(CC(=O)O)C(=O)O [Compound 92] | 2 | > 1000 |
| CCCCCCCC(=O)CCCCCC/C=C/[C@H](C(=O)N[C@@H](Cc1ccc(-n2cc(C(=O)OCC)nn2)cc1)C(=O)O)[C@@](O)(CC(=O)O)C(=O)O [Compound 96] | 9 | > 1000 |
| CCCCCCCC(=O)CCCCCC/C=C/[C@H](C(=O)N[C@@H](Cc1ccc(NC(=N)N)cc1)C(=O)O)[C@@](O)(CC(=O)O)C(=O)O [Compound 95] | 395 | > 1000 |
| CCCCCCCC(=O)CCCCCC/C=C/[C@H](C(=O)N[C@@H](Cc1ccc(OC2CCCCC2)cc1)C(=O)O)[C@@](O)(CC(=O)O)C(=O)O [Compound 21] | 4 | > 1000 |
| CCCCCCCC(=O)CCCCCC/C=C/[C@H](C(=O)N[C@@H](Cc1ccc(-c2cccc(Cl)c2)cc1)C(=O)O)[C@@](O)(CC(=O)O)C(=O)O [Compound 38] | 24 | > 1000 |
| CCCCCCCC(=O)CCCCCC/C=C/[C@H](C(=O)N[C@@H](Cc1ccc(OCc2ccccc2)cc1)C(=O)O)[C@@](O)(CC(=O)O)C(=O)O [Compound 17] | < 1 | > 5000 |
| CC(C)CCCCC(=O)CCCCCC/C=C/[C@H](C(=O)N[C@@H](Cc1ccc(OCCC(C)C)cc1)C(=O)O)[C@](O)(CC(=O)O)C(=O)O [Compound 50] | 4 | > 1000 |
